# Measured values: patent publication US9868763B2, “Modulators of protease activated receptors” (The University of Queensland, priority 2011, dated 2018)
# Entries after “also recorded” stand apart in the source; their conditions may differ.
# Key:
# [1] = target: T1, β-tryptase (Homo sapiens, UniProt Q15661); experiment: Tryptase activity assay; format: biochemical; settings: 20 μM; substrate tosyl-Gly-Pro-Arg-pNA
# T1 construct: purchased Promega
# Method: β-tryptase (10 ng/μL, 100 μL) was incubated±PAR2 antagonist 52 (20 μM) for 15 min, to which substrate tosyl-Gly-Pro-Arg-pNA (250 μM) was added. Absorbance was measured as optical density at 405 nm (FLUOstar Optima, BMG labtech, Aust.) every 41 s for 1 h.
# [2] = Pharmacokinetics, single oral dose; format: in vivo, Wistar rat
# Method: Male Wistar rats were surgically implanted with a jugular vein catheter. Blood samples (heparinised) were collected from the catheter of an unanaesthetised, unrestrained rat, 5 min prior to PAR2 antagonist 52 administration (10 mg/kg p.o.) and 30 min, 1-6, 8 and 24 h post-administration. Rats not implanted with a catheter were given PAR2 antagonist 52 (10 mg/kg/day p.o.) four days consecutively (n=6). On the fifth day, plasma, cerebrospinal fluid (CSF), paw tissue and intraperitoneal adipose were collected for LCMS analysis.
# [3] = test system: β-tryptase-induced paw oedema; experiment: β-tryptase-induced paw oedema; format: in vivo, Wistar rat
# Method: Based on previous methods (Kelso E B et al., J Pharmacol Exp Ther 2006, 316(3):1017-24; Suen J Y et al., Br J Pharmacol 2011, doi: 10.1111/j.1476-5381.2011.01610.x.), PAR2 antagonist 52 (10 mg/kg s.c.; n=4), ENMD-1068 (100 mg/kg s.c.; n=4) or vehicle control (DMSO s.c.; n=2) were administered to male Wistar rats. Baseline paw thickness and width were measured using digital calipers (World Precision Instruments, USA) expressed in area (mm^2; thickness×width). Fifteen minutes later, 2Furoyl-LIGLRO-NH2 (350 μg/paw in 100 μL saline) was injected into of the right hind paw pad (intraplantar, i.pl.). The left hind paw acted as a control, receiving saline only. In a separate experiment, vehicle (500 μL olive oil) versus PAR2 antagonist 52 (10 mg/kg p.o. in 500 μL olive oil) only were administered orally to two groups of rats (4 per group). Two hours later, β-tryptase (human recombinant lung, 20 μg in 100 μL saline) was injected into the right hind paw pad (vehicle in left for control) of all animals in each group. In all experiments, paw swelling was measured and expressed in area (mm^2; thickness×width) and plotted as % change from baseline of each individual paw.
# [4] = test system: TNBS-induced chronic colitis; experiment: TNBS-induced chronic colitis model; format: in vivo, rat; settings: sulfasalazine 100 mg/kg/day p.o.
# Method: On day 0, rats were weighed, given respective treatments of either sulfasalazine (100 mg/kg in olive oil p.o.), compound 52 (10 mg/kg in olive oil), or vehicle (500 l olive oil p.o.), and fasted for 24 h with water supplied ad libitum. The next day (day 1), rats were weighed, dosed with respective compound, and anesthetized with isofluorane. A polyethylene catheter was inserted intrarectally (8 cm). Control and drug-treated animals received an intracolonic dose of TNBS (80 mg/kg in saline and 250 l, 50% ethanol in water) (Fiorucci at al., 2001). Sham animals received vehicle only, with TNBS replaced by equivolume water. Rats were maintained in an inclined position (40°) for 30 min, then allowed to recover with food and water supplied. Rats were dosed daily with the respective compound, weighed, and scored for general health and disease progression. All rats were sacrificed on day 8 of experimentation unless they were sacrificed earlier. Disease progression and post-mortem colonic histopathology was scored by the following methods. PAR2 and tryptase co-localization were investigated by using immunohistochemistry.
# DAI for both acute and chronic models was assessed and scored by an expert blinded to treatments. Scores incorporated mobility, gastrointestinal pathology, discomfort, and generalized sickness behaviour criteria (each scored 0-3). Any animal that reached stage 3 in any criteria was euthanized by CO2 inhalation and recorded as a disease-related mortality. Scores were summed and expressed as total disease score (maximum 12). DAI was measured at endpoint only (10 h) in the acute study and daily in the chronic TNBS study.
# Colons were dissected post-mortem and given a macroscopic disease score based on that described previously (Bobin-Dubigeon et al., 2001) with some minor alterations (maximal score 14). The entire colon length was removed between the ileocolic and colorectal junction. Length and maximal distension width were measured. Sections of affected colon were taken for biochemical analysis, histology, and wet/dry weight.
# [5] = male, Wistar, rat, 10 mg/kg oral gavage, plasma
# T1 sequence (Q15661 31-275): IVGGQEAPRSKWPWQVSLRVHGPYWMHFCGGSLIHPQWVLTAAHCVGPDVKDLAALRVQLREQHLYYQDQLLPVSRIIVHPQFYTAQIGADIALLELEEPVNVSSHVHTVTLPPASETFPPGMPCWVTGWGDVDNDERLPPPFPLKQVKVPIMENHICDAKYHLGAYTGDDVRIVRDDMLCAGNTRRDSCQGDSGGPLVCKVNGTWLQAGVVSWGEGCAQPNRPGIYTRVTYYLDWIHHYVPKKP
smiles,measurement,setting,value
CC[C@H](C)[C@@H](NC(=O)[C@H](CC1CCCCC1)NC(=O)c1ccno1)C(=O)N1CCC2(C=Cc3ccccc32)CC1 [Compound 52],inhibition of proteolytic activity of β-tryptase,[1],did not inhibit; also recorded: not inhibited
same,presence in plasma after 24 h,[2]; 10 mg/kg oral gavage,No PAR2 antagonist 52 was present
same,concentration at 3 h,"[2]; Wistar, rat, paw tissue homogenate, po, 3 h post administration, 10 mg/kg p.o., LCMS/MS, read-out: concentration in paw tissue homogenates",35 nM
same,bioavailability,"[2]; male, Wistar, rat, plasma, po, 10 mg/kg, 10 mg/kg p.o., from AUC 0-6 h, read-out: oral bioavailability F",55%
same,Cmax,[2]; [5],1700 ± 400 nM
same,Tmax,[2]; [5],4 ± 0.6 h
same,half-life,[2]; [5],1.13 ± 0.13 h
same,paw oedema induced by β-tryptase,"[3]; 10 mg/kg p.o. in olive oil, β-tryptase 20 μg/paw 2 h later",reduced paw oedema; also recorded: prevented the oedema; also recorded: strongly inhibited
same,β-tryptase-induced mast cell degranulation in the extrasynovium,[3]; 10 mg/kg pretreatment,ameliorated; also recorded: prevented
same,"chronic colitis: mortality and pathology (colon obstruction, ulceration, wall thickness, myeloperoxidase release)",[4]; 52 10 mg/kg/day p.o.,ameliorated; also recorded: more effectively than the clinically used drug sulfasalazine
same,TNBS-mediated mortality,[4]; 52 10 mg/kg/day,8.3%
same,DAI compared with TNBS-controls,"[4]; from day 2 onward, 52 10 mg/kg/day",marked improvements in DAI; also recorded: almost complete recovery
